Measured values from ChEMBL document CHEMBL1201862, “PubChem BioAssay data set” (2004).
Activity calls are given as the source filed them.

What was measured:
Candida albicans [1] = test: growth inhibition of resistant C. albicans, dose response, CaCi-8 strain, fluconazole, dry powder, set 4 (AID 488950); type: functional, organism-based
Candida albicans [2] = test: growth inhibition of azole-resistant C. albicans, dose response, CaCi-8 strain, Alamar Blue, dry powder, set 2 (AID 488909); type: functional, organism-based
Candida albicans [3] = test: fluconazole resistance reversal in C. albicans, dose response, CaCi-2 strain, Alamar Blue, dry powder, set 4 (AID 488943); type: functional, organism-based
HeLa = test: HeLa cell cytotoxicity, dose response, cytotoxicity control for MITF activator project, CellTiter-Glo luminescence, cherry-pick samples (AID 540259); type: functional, cell-based; details: Homo sapiens
Protein RecA = target: T1, Protein RecA (Mycobacterium tuberculosis, UniProt P9WHJ3); test: Fluorescence Cell-Free Homogeneous Dose Retest to Identify Inhibitors of RecA-Intein Splicing Activity. [Related pubchem assays (depositor defined):AID2097, AID2223, AID489010, AID492950]; type: functional
T1 sequence (P9WHJ3 whole entry): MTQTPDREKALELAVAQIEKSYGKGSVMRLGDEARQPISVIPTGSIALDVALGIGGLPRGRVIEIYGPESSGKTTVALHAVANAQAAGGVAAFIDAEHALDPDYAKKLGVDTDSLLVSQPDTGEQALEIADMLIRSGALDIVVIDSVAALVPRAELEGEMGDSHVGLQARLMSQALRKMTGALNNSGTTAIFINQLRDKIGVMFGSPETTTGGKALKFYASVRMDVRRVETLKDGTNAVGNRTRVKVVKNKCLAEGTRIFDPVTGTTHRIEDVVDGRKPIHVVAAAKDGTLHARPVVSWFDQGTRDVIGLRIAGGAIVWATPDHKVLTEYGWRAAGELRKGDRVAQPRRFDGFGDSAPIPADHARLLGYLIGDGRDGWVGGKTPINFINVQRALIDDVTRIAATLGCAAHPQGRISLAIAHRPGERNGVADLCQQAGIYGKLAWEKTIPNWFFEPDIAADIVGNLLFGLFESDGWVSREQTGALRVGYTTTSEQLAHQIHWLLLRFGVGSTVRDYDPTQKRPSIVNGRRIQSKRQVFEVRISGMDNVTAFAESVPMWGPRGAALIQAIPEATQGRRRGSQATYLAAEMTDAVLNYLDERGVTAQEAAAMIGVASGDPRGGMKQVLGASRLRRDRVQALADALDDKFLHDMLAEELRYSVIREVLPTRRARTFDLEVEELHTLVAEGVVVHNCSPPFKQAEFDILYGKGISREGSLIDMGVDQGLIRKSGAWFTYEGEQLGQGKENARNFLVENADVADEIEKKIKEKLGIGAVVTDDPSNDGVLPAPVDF

[4] = target: Opioid receptors; mu & delta (Homo sapiens, UniProt P41143+P35372); test: agonists of MOR-DOR heterodimerization, dose response, cell-based, luminescence (AID 588407); type: functional
[5] = target: Delta-type opioid receptor (Homo sapiens, UniProt P41143); test: Counterscreen for agonists of heterodimerization of the mu 1 (OPRM1) and delta 1 (OPRD1) opioid receptors: Luminescence-based cell-based high throughput dose response assay to identify agonists of OPRD1 homodimerization. [Related pubchem assays (depositor defined):AID504326, AID504355, AID504692, AID504904, AID504905]; type: functional
Chain of Delta-type opioid receptor (P41143 whole entry): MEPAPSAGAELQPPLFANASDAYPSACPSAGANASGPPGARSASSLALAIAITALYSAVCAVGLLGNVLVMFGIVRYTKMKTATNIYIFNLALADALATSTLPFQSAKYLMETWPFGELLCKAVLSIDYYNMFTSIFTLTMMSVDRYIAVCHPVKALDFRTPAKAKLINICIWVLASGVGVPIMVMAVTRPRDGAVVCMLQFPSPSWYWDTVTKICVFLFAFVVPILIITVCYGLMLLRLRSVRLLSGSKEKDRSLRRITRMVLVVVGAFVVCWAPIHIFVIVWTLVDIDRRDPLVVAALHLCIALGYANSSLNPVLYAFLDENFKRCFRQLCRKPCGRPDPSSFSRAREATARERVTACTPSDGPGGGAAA

[6] = target: T2, Replicative DNA helicase DnaB (Mycobacterium tuberculosis, UniProt P9WMR3); test: DnaB intein splicing inhibitors, dose response, biochemical, cell-free fluorescence (AID 449749); type: functional
T2 sequence (P9WMR3 whole entry): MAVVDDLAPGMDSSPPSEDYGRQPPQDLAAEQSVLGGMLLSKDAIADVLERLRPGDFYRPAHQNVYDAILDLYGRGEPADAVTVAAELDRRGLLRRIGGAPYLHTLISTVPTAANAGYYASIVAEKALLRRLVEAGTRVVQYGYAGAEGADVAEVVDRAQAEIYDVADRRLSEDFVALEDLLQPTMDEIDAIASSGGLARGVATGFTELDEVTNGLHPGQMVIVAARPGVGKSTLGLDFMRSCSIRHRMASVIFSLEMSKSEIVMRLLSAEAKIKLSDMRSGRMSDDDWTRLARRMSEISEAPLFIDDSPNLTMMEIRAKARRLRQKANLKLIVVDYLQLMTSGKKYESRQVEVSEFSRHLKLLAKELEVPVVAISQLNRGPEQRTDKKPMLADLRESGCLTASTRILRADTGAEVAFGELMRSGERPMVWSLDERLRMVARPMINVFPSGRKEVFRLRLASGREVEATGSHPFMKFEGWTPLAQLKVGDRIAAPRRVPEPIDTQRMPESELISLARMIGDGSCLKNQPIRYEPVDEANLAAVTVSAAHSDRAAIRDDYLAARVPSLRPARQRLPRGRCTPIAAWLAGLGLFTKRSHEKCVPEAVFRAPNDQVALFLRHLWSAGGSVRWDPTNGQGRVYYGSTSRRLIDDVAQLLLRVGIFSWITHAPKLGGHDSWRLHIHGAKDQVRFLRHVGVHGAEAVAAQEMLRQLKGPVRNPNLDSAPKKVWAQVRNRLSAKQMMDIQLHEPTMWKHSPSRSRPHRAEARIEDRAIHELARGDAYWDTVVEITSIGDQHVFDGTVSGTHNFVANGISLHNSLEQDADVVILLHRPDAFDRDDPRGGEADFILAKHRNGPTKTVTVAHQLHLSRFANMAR

Mu-type opioid receptor = Mu-type opioid receptor (Homo sapiens, UniProt P35372); test: Counterscreen for agonists of heterodimerization of the mu 1 (OPRM1) and delta 1 (OPRD1) opioid receptors: Luminescence-based cell-based high throughput dose response assay to identify agonists of OPRM1 homodimerization.; type: functional;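 also: U2OS cells expressing OPRM1 and beta-arrestin as split beta-galactosidase partners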
Chain of Mu-type opioid receptor (P35372 whole entry): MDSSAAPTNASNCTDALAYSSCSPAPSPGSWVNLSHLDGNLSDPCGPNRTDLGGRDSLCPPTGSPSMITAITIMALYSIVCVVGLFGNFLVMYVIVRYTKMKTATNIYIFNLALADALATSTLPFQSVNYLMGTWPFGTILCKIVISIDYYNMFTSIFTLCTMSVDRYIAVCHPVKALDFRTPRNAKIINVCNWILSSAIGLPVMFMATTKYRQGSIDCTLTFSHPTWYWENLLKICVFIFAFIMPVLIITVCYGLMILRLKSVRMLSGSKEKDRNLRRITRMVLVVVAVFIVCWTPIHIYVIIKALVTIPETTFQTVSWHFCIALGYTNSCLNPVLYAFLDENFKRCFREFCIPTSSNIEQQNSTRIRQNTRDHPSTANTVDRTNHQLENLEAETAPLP

[7] = target: 5-hydroxytryptamine receptor 5A (Homo sapiens, UniProt P47898); test: Counterscreen for agonists of OPRM1-OPRD1 heterodimerization: luminescence-based cell-based high throughput dose response assay to identify agonists of 5-hydroxytryptamine (serotonin) 5A receptor (HTR5A). [Related pubchem assays (depositor defined):AID504326, AID504355, AID504692, AID504904, AID504905]; type: functional
Chain of 5-hydroxytryptamine receptor 5A (P47898 whole entry): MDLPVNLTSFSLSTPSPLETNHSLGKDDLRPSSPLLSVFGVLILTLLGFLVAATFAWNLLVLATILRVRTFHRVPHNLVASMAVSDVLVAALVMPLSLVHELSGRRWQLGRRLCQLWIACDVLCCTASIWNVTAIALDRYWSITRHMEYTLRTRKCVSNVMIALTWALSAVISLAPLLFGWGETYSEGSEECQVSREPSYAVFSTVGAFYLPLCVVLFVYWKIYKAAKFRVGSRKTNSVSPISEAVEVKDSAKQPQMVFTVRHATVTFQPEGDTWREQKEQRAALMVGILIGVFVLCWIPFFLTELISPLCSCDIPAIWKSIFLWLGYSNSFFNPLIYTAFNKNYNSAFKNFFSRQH

[8] = target: Intestinal-type alkaline phosphatase (Homo sapiens, UniProt P09923); test: inhibition of human intestinal alkaline phosphatase – biochemical, dose response (AID 488876); type: functional
Chain of Intestinal-type alkaline phosphatase (Homo sapiens, UniProt P09923) (P09923 whole entry): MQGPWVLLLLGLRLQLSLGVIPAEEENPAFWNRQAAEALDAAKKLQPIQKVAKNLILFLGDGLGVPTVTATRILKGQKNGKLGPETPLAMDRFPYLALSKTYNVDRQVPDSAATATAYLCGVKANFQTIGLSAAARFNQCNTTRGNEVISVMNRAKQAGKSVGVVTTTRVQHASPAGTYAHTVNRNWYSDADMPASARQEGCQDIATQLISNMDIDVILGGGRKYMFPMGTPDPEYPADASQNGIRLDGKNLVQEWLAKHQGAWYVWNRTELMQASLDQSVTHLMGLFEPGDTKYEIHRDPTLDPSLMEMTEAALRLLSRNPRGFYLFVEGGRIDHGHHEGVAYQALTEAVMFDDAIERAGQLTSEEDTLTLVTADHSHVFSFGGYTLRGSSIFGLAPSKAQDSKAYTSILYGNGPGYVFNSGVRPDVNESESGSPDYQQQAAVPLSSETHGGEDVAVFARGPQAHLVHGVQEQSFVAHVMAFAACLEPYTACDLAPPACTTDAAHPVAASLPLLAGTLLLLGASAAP

[9] = target: Intestinal-type alkaline phosphatase (Mus musculus, UniProt P24822); test: PubChem AID 488785; type: functional
Chain of Intestinal-type alkaline phosphatase (Mus musculus, UniProt P24822) (P24822 whole entry): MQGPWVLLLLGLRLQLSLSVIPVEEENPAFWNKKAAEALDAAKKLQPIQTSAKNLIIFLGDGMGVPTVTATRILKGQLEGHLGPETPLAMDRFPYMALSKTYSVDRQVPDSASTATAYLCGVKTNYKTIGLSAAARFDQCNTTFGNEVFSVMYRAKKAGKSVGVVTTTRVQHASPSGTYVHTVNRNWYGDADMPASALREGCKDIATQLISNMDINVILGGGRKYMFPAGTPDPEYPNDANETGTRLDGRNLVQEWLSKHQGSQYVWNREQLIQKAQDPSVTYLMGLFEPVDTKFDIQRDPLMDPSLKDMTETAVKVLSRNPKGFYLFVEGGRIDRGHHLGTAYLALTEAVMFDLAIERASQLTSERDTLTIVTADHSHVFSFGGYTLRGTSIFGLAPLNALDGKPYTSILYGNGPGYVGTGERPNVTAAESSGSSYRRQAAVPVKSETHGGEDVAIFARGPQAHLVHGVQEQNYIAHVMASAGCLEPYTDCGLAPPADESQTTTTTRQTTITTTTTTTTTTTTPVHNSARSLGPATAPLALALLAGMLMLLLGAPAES

Large T antigen = Large T antigen (Simian virus 40, UniProt P03070); type: functional, Betapolyomavirus macacae;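 also: Confirmatory-stage PubChem screen for compounds that inhibit SV40 T antigen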
Chain of Large T antigen (P03070 whole entry): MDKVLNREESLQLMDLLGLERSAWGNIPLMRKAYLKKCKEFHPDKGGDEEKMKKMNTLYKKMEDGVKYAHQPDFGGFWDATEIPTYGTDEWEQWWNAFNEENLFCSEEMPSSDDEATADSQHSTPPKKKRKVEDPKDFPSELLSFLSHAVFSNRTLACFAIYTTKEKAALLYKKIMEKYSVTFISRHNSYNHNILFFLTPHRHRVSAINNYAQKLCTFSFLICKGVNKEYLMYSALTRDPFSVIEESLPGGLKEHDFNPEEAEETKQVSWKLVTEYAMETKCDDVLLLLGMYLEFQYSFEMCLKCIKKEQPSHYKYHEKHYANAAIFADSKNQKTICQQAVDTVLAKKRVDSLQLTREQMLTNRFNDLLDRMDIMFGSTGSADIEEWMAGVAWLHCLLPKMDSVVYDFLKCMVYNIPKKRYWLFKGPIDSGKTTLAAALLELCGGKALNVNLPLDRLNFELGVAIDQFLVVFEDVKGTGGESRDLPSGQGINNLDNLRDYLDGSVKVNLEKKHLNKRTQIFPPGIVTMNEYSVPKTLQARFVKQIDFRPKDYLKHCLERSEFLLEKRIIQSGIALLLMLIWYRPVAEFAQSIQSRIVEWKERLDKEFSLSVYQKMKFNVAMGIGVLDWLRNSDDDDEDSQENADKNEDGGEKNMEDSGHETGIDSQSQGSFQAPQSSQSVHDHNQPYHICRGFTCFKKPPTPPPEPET

[10] = target: T3, Alkaline phosphatase, tissue-nonspecific isozyme (Homo sapiens, UniProt P05186); test: TNAP enzyme inhibition by screening hits, dose response, selectivity assay for mouse IAP inhibitor project, biochemical, human TNAP, uHTS hits (AID 488906); type: functional
T3 sequence (P05186 whole entry): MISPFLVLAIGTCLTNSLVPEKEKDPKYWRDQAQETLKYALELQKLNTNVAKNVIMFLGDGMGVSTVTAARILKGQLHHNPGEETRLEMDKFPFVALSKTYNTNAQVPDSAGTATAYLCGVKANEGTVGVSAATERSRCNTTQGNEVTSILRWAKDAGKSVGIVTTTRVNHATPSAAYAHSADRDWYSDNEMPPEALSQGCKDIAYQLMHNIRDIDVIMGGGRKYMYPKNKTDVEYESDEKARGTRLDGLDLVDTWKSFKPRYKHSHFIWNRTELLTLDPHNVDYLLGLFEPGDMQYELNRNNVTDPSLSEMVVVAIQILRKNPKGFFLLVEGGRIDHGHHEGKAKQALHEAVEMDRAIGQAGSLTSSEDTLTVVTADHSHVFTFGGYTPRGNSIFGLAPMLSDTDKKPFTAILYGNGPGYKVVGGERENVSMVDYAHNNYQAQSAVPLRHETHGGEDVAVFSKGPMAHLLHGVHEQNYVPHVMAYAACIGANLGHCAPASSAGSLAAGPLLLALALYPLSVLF

[11] = cytotoxicity in HEK-293T cells, dose response, cytotoxicity control for TCR NF-kB inhibitor project, luminescence, T-cell screen hits (AID 489026); type: functional, cell-based;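 also: cells exposed to compound about 14 hours before the viability readout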
[12] = LGR2 antagonists, dose response, cell-based, HEK293, CRE-luciferase reporter, cherry pick, set 2 (AID 743343); type: functional;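 also: transfected cells were stimulated with diluted bursicon conditioned medium after compound addition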
[13] = A549 cell cytotoxicity, dose response, cytotoxicity control, plate reader, cherry-pick, antagonist series (AID 743412); type: functional, cell-based
[14] = MC4R antagonists, dose response, counter-screen for LGR2 antagonist project, cell-based, plate reader, cherry pick (AID 743444); type: functional;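 also: transfected HEK 293 cells stimulated with alpha-MSH peptide; potency of inhibitors of the alpha-MSH evoked signal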
[15] = target: T4, Heat shock factor protein 1 (Mus musculus, UniProt P38532); test: inhibition of MG132-induced HSE-luciferase signal, confirmation, cell-based, NIH3T3, luminescence, dose retest (AID 2382); type: functional;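 also: NIH3T3 fibroblasts with HSF1-driven luciferase reporter stressed by proteasome inhibitor MG132; luminescence from HSF1-driven luciferase expression after 8 hours of MG132 stress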
T4 sequence (P38532 whole entry): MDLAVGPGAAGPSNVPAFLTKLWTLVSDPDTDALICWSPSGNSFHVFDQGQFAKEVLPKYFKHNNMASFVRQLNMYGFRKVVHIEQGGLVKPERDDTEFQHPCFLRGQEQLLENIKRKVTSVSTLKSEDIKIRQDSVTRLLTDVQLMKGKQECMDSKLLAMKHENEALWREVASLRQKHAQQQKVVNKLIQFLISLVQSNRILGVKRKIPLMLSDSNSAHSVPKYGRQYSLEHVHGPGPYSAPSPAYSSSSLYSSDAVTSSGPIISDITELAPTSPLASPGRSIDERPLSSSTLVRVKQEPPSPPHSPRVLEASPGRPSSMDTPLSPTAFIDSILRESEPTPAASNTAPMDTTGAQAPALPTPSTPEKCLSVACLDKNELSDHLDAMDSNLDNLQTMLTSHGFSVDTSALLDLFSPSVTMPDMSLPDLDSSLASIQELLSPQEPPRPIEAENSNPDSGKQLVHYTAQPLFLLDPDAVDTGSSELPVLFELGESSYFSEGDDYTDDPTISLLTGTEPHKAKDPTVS

[16] = HEK293 cell cytotoxicity, dose response, cytotoxicity control, plate reader, cherry-picked samples (AID 743446); type: functional, cell-based
[17] = target: Luciferin 4-monooxygenase (Photuris pensylvanica, UniProt Q27757); test: firefly luciferase enzyme inhibitors, dose response, counter-screen for HSF-1 reporter inhibitor project, biochemical, Cell Titer Glo, luminescence, cherry-picks (AID 588847)
Chain of Luciferin 4-monooxygenase (Q27757 whole entry): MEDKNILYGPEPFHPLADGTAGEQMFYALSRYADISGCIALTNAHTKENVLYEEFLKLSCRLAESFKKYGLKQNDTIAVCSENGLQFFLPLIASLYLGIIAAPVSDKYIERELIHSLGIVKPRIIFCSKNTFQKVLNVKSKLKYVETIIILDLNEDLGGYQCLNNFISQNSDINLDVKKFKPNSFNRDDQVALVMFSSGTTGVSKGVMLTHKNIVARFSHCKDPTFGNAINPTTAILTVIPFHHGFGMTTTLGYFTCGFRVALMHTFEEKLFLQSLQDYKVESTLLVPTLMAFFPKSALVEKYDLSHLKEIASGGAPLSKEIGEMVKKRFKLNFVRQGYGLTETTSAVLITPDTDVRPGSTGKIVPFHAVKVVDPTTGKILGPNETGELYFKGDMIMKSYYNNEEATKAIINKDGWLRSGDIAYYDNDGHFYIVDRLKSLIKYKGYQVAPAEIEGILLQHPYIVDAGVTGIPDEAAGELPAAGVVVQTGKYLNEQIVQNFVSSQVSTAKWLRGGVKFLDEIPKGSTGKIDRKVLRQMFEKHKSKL

Keap1/Nrf2 = Keap1/Nrf2 (Homo sapiens, UniProt Q14145); test: Keap1-Nrf2 protein-protein interaction inhibitors, dose response, biochemical, fluorescence polarization, cherry-picked samples (AID 588683)
Chain of Keap1/Nrf2 (Q16236 whole entry): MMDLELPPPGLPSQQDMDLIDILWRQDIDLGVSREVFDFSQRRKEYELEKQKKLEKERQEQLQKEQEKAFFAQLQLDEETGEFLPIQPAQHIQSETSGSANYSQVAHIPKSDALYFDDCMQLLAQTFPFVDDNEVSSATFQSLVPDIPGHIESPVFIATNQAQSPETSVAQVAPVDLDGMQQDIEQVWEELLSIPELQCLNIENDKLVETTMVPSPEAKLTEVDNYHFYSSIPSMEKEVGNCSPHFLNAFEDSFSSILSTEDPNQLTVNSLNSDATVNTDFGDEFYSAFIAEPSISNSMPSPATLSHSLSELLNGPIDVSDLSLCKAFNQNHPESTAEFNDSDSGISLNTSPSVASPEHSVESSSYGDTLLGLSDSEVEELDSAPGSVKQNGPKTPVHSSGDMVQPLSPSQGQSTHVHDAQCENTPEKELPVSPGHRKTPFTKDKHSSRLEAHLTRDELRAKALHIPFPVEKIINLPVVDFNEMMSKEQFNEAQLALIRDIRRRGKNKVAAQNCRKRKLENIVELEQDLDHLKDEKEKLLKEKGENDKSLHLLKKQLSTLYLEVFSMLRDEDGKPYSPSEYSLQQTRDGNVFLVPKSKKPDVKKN
Chain of Keap1/Nrf2 (Q14145 whole entry): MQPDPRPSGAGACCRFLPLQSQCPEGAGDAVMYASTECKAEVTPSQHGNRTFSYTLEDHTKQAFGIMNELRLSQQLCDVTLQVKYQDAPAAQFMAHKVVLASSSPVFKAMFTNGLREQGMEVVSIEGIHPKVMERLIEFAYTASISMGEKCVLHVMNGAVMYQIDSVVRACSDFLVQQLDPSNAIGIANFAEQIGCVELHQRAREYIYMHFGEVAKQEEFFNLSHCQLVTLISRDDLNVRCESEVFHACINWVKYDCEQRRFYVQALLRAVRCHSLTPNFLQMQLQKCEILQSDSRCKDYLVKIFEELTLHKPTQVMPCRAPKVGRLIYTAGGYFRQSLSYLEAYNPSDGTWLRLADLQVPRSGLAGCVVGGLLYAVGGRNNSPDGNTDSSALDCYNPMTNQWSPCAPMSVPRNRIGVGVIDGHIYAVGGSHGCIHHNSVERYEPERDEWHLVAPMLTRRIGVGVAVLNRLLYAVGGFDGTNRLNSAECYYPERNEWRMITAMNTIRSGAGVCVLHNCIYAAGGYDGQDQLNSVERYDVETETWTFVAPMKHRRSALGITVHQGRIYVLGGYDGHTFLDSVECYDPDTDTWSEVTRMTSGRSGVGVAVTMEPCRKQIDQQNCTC

What does the source list for O=C(Nc1ccc(Cl)cc1)N1CCN(c2ccnc3cc(Cl)ccc23)CC1?
AC50 (Candida albicans [1]): 1.56 µM (active); AC50 (Candida albicans [2]): 0.295 µM (active); AC50 (Candida albicans [3]): 1.16 µM (active)

With COc1ccc(COc2ccc3ccc(=O)oc3c2)cc1 as the compound, how does the AC50 (HeLa) read?
Its AC50 is 93.8 µM (active).

Which EC50 (Protein RecA) does the source give for c1ccc(C2[C@H]3CN(Cc4cccnc4)[C@H](c4ccccc4)C34CC2(c2cccnc2)C4)cc1 (some centres undefined) here?
The EC50 was 16.7 µM (active).

And the EC50 [4]?
Its EC50 is greater than 3.424 µM.

And the EC50 [5]?
Its EC50 is 3.21 µM (active).

And the AC50 [6]?
Its AC50 is 3.72 µM (active).

What about the EC50 (Mu-type opioid receptor) of the same compound?
Its EC50 is > 92.5 µM (inactive).

What about the EC50 [7] of the same compound?
The EC50 was > 92.5 µM (inactive).

Which results are given for Oc1cc(O)c2c(c1)O[C@H](c1ccc(O)c(O)c1)[C@@H](O)C2?
EC50 (Protein RecA): 4.11 µM (active); IC50 [8]: > 100 µM (inactive); IC50 [9]: 15.5 µM (active); IC50 (Large T antigen): 11.4 µM (active); AC50 [6]: 22.2 µM (active); IC50 [10]: 37.1 µM (active)

For CC1CCCN(c2ncnc3c2cnn3-c2ccc(Cl)cc2)C1 (centres undefined), which IC50 [11] is on record?
Its IC50 is > 80 µM (inactive).

And the AC50 [12]?
Its AC50 is < 0.068 µM (active).

And the AC50 [13]?
Its AC50 is > 52 µM (inactive).

What about the AC50 [14] of the same compound?
Its AC50 is 0.155 µM (active).

What about the EC50 [15] of the same compound?
Its EC50 is < 0.16 µM (active).

What about the AC50 [16] of the same compound?
The AC50 was > 52 µM (inactive).

What about the AC50 [17] of the same compound?
Its AC50 is 1.34 µM (active).

Which AC50 (Keap1/Nrf2) does the source give for Cc1cc[n+](-c2[n-]c(=O)sc2C=NNC(=S)Nc2ccccc2)cc1C here?
The AC50 was > 52 µM (inactive).
